Measured values from patent US20260035372A1, “METHOD FOR PREPARING (R)-KETOROLAC AND USE THEREOF” (Yinuoke Medicine Science and Technology Co LTD, priority 2022, published 2026).

What was measured:
[1] = stronger than (R)-ketorolac; cited from earlier work
[2] = stronger than (R)-ketorolac; cited from earlier work; remark: listed apart in the source
[3] = system: colon cancer model Colon-26; test: (R)-ketorolac combined with gemcitabine on colon cancer model Colon-26, tumor growth curve; format: in vivo; conditions: Colon-26 s.c. in male BALB/C mice; (R)-ketorolac alone by gavage 0.1 mg/d for 12 d
Experimental: (§1) The colon cancer tumor model was established by using adult male BALB/C mice which were subcutaneously inoculated 106 well-growing Colon-26 tumor cells. Starting from the 7th day after tumor inoculation, the two largest diameters of the tumors were measured with vernier calipers twice a week, and the tumor size was expressed as area (square millimeters). After the tumors grew to a certain size, the mice were randomly divided into 4 groups, including a control group (n=5) and 3 treatment groups: the (R)-ketorolac monotherapy group (n=5) was administered by gavage, 0.1 mg/d, for a total of 12 d; the gemcitabine monotherapy group (n=4) was administered intraperitoneally, 2 mg/1 time every 3 d, for a total of 4 times; and the combined therapy group (n=5) adopted the two drugs in combination, and the dosage and frequency of administration were the same as those in the monotherapy group.
After starting the treatment, the tumors were measured twice a week, and a tumor growth curve was made based on average tumor area=SEM.

[4] = system: aortic dissection and aortic aneurysm; conditions: oral administration; from CN202111115983.X; cited from earlier work
[5] = system: colon cancer model Colon-26; conditions: Colon-26 in BALB/C mice; cyclophosphamide i.p. 3 mg every 6 d x3, with or without (R)-ketorolac 0.1 mg/d x18
Experimental: as §1
The colon cancer tumor model was established as described in the above.
After starting the treatment, the tumors were measured twice a week, and a tumor growth curve was made based on average tumor area±SEM.

Compound: O=C(c1ccccc1)c1ccc2n1CC[C@@H]2C(=O)O [(S)-ketorolac]
- analgesic effect relative to (R)-ketorolac [1]: 230 times
- anti-inflammatory effect relative to (R)-ketorolac [2]: 60 times

Compound: O=C(c1ccccc1)c1ccc2n1CC[C@H]2C(=O)O [(R)-ketorolac]
- effect on colon cancer tumor growth (tumor area growth curve, FIG. 16) [3]: no effect
- effect on aortic dilation, incidence and mortality of aortic dissection and aortic aneurysm [4]: inhibit pathological dilation of the aorta and reduce the incidence and mortality of aortic dissection and aortic aneurysm

Compound: O=P1(N(CCCl)CCCl)NCCCO1 (stereo not drawn) [cyclophosphamide]
- cure rate [5]: 16.7%
- mice completely cured [5]: 1 out of 6
